Measurements taken from US20250312369A1, “ANTI-AGING AND ANTI-INFLAMMATORY COMPOSITIONS COMPRISING NICOTINAMIDE MONONUCLEOTIDE AND RESVERATROL AND USES THEREOF” (WONDERFEEL, priority 2022, published 2025).

Legend:
[1] = prediabetic women, clinical trial 2021; cited from earlier work
[2] = system: human lung epithelial cell line (A549); assay: LDH release after hydrogen peroxide and hypoxic injury in A549 cells; type: cell-based; conditions: 100 micromolar H2O2, 18 hours at 37° C., 95% nitrogen and 5% carbon dioxide, treatment agents 10 micromolar in the media
Procedure: In order to model cytoprotective effects of the invention, a reductionist in vitro model was employed wherein a human lung epithelial cell line (A549) was exposed to severe oxidant and hypoxic stress. Cultured A549 cells were placed in 96 well plates, incubated in Dulbecco's Modified Eagle's Medium (DMEM), and allowed to grow to confluence over 72 hours. Cellular injury was created by the addition into the media of 100 micromolar hydrogen peroxide (H2O2), followed by incubation at 37° C. for 18 hours in an atmosphere of 95% nitrogen and 5% carbon dioxide, which maintained a pH in the incubation media of 7.4. Three experimental arms were evaluated, using quadruplicate replicates, as follows: a) media control, b) NMN, and c) NMN plus resveratrol and hydroxytyrosol. A control arm was examined that was not exposed to hydrogen peroxide. The treatment agents were added such that their final concentration in the media was 10 micromolar. lactate dehydrogenase (LDH) was assayed in the media after 18 hours using a commercial kit, based upon a colorimetric change quantified by visible spectrophotometry.

[3] = animals and humans, even at high doses; cited from earlier work
[4] = system: sirtuin-1; conditions: 500 mg/day, healthy and slightly overweight subjects; cited from earlier work

For `NC(=O)c1ccc[n+]([C@@H]2O[C@H](COP(=O)([O-])O)[C@@H](O)[C@H]2O)c1` [NMN, 3-carbamoyl-1-[5-O-(hydroxyphosphinato)-β-D-ribofuranosyl] pyridinium], which muscular insulin sensitivity [1] is on record?
Its muscular insulin sensitivity is “improve muscular insulin sensitivity”.

What about the “reduction in the elevation in LDH release produced by addition of hydrogen peroxide alone” value [2] of the same molecule?
The value was 14%.

For `C[N+](C)(C)[C@@H](Cc1c[nH]c(=S)[nH]1)C(=O)[O-]` [ergothioneine, (2S)-3-(2-sulfanylidene-2,3-dihydro-1H-imidazol-4-yl)-2-(trimethylazaniumyl)propanoate], which “toxicity or adverse effects associated with administration” value [3] is on record?
The value was “no toxicity or adverse effects”.

With `Oc1ccc(/C=C/c2cc(O)cc(O)c2)cc1` [resveratrol, 3,4′,5-trihydroxy-trans-stilbene] as the molecule, how does the “gene expression and serum concentration of sirtuin-1” value [4] read?
Its value is “higher gene expression and serum concentration of sirtuin-1”.
